Assay results published in ChEMBL document CHEMBL1201862, “PubChem BioAssay data set” (2004).
Calls of active or inactive are those of the source.

Columns and labels:
[1] = target: 5-hydroxytryptamine receptor 1E (Homo sapiens, UniProt P28566); test: Counterscreen assay for S1P3 antagonists: Dose response cell-based high throughput screening assay to identify antagonists of the 5-Hydroxytryptamine Receptor Subtype 1E (5HT1E). [Related pubchem assays: 1429, 485 ]; type: functional
[2] = target: Sphingosine 1-phosphate receptor 3 (Homo sapiens, UniProt Q99500); test: Dose response cell-based high throughput screening assay for antagonists of the Sphingosine 1-Phosphate Receptor 3 (S1P3). [Related pubchem assays: 1429, 485 ]; type: functional
Sphingosine 1-phosphate receptor 3, sequence (Q99500 whole entry): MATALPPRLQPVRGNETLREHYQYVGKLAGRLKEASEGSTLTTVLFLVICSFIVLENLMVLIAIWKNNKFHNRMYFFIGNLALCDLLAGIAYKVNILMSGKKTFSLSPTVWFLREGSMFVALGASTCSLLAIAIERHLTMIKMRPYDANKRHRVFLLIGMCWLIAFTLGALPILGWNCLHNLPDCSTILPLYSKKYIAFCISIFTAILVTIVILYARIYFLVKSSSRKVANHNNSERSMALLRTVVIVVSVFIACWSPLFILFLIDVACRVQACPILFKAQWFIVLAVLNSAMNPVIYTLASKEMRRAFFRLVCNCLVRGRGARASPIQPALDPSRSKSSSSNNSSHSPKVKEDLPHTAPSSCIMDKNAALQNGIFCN

[3] = target: Leucine aminopeptidase (Plasmodium falciparum 3D7, UniProt Q8IL11); test: P. falciparum M17LAP inhibitors, primary screen, biochemical, fluorogenic H-Leu-NHMec substrate, 1536-well (AID 1619); type: functional
Leucine aminopeptidase, sequence (Q8IL11 whole entry): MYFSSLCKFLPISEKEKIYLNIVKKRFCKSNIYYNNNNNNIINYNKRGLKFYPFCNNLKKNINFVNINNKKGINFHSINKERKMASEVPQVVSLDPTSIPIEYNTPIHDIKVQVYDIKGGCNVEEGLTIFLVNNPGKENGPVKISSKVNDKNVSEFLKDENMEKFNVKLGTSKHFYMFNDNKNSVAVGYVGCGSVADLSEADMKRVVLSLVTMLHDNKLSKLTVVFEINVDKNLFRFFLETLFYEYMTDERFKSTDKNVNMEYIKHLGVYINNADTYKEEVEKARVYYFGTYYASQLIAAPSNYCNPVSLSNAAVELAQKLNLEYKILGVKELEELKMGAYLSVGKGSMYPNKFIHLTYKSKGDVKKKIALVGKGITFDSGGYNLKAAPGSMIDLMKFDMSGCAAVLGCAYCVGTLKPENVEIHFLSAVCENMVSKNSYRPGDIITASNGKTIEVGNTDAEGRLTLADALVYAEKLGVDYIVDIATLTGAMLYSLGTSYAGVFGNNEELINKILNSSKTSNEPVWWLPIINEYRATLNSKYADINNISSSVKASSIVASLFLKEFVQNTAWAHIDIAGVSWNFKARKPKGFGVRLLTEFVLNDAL

[4] = target: T1, Aspartyl aminopeptidase (Plasmodium falciparum 3D7, UniProt Q8I2J3); test: Counterscreen for inhibitors of M1 and M17 aminopeptidases: QFRET-based biochemical high throughput dose response assay for inhibitors of the Plasmodium falciparum M18 Aspartyl Aminopeptidase (PFM18AAP). [Related PubChem assays: 1619 (Screening assay (M17LAP inhibitors).), 1445 (Screening assay (M1AAP inhibitors).)]
T1 sequence (Q8I2J3 whole entry): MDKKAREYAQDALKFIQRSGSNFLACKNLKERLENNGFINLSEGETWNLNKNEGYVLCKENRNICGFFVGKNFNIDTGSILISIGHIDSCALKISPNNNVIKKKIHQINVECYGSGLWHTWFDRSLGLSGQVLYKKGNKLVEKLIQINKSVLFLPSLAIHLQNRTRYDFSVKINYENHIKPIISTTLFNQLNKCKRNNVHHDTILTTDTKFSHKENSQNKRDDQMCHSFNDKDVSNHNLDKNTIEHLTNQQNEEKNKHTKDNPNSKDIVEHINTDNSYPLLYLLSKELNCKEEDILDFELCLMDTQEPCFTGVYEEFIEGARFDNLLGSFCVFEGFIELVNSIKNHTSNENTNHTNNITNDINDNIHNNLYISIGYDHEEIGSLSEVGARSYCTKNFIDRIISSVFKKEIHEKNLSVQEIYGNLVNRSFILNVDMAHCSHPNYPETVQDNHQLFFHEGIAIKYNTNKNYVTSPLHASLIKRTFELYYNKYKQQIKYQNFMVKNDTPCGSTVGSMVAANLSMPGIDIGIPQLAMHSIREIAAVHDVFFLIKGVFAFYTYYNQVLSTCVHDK

[5] = target: Procathepsin L (Homo sapiens, UniProt P07711); test: CTSL1 protease inhibition – biochemical, QFRET, 1536-well, counter-screen for M1/M17 aminopeptidase inhibitor project, dose response (AID 2214)
Procathepsin L, sequence (P07711 whole entry): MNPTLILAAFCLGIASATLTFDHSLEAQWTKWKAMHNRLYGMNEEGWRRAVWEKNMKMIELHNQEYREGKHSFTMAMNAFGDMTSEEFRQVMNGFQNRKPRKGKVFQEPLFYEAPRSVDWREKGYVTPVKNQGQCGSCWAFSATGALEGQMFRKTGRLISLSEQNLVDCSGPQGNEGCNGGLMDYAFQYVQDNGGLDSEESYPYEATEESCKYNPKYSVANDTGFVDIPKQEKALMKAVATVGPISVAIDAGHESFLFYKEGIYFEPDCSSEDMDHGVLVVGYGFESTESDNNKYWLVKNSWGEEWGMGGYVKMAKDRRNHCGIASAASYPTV

[6] = target: Sphingosine 1-phosphate receptor 2 (Homo sapiens, UniProt O95136); test: Dose Response Cell Based Assay for Agonists of the S1P2 Receptor of Purchased Analogues. [Related pubchem assays: 729, 843, 854, 736 ]; type: functional
Sphingosine 1-phosphate receptor 2, sequence (O95136 whole entry): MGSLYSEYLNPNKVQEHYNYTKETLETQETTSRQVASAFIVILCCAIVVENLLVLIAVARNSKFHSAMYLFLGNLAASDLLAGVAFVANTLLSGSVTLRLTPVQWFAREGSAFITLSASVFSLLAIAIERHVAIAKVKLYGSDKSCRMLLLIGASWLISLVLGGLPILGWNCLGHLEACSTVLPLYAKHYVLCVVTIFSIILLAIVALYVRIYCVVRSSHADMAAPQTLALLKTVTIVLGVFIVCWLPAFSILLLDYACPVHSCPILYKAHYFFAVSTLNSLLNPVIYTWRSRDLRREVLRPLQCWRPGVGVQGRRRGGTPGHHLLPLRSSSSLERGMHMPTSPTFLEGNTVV

[7] = NIH-3T3 fibroblast cytotoxicity, dose response, cytotoxicity control, cell-based, fluorescence, Alamar Blue, secondary assay (AID 2327); type: functional;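 note: NIH-3T3 mouse fibroblasts cultured with fluconazole at 8 µg/mL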
[8] = luciferase reporter signal reduction – luminescence, H4-C neuroglioblastoma cells, dose response (AID 2458); type: functional, cell-based;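 note: H4 neuroglioblastoma cells stably carrying a luciferase reporter gene fusion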
[9] = cells; type: functional, cell-based
[10] = alpha-synuclein stem-loop luciferase translation blockers – H4 neuroglioma cells, luminescence, confirmation (AID 1988); type: functional, cell-based
[11] = fluconazole-exposed Candida albicans growth modulators – fluorescence, retest, confirmation (AID 2467); type: functional, cell-based
[12] = target: Serine/threonine-protein phosphatase (Candida dubliniensis (strain CD36 / CBS 7987 / NCPF 3949 / NRRLY-17841) (Yeast), UniProt B9W6M3); test: blockers of CaCl2-induced CDRE-lacZ signaling – S. cerevisiae, luminescence, secondary, dose response (AID 2388); type: functional, cell-based;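 note: yeast reporter cells carrying a calcineurin-responsive lacZ construct stimulated with calcium chloride; luminescent beta-galactosidase reporter signal in whole cells rather than isolated phosphatase activity; potency for inhibition where a drop in reporter signal means calcineurin blockade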
Serine/threonine-protein phosphatase (Candida dubliniensis (strain CD36 / CBS 7987 / NCPF 3949 / NRRLY-17841) (Yeast), UniProt B9W6M3), sequence (B9W6M3 whole entry): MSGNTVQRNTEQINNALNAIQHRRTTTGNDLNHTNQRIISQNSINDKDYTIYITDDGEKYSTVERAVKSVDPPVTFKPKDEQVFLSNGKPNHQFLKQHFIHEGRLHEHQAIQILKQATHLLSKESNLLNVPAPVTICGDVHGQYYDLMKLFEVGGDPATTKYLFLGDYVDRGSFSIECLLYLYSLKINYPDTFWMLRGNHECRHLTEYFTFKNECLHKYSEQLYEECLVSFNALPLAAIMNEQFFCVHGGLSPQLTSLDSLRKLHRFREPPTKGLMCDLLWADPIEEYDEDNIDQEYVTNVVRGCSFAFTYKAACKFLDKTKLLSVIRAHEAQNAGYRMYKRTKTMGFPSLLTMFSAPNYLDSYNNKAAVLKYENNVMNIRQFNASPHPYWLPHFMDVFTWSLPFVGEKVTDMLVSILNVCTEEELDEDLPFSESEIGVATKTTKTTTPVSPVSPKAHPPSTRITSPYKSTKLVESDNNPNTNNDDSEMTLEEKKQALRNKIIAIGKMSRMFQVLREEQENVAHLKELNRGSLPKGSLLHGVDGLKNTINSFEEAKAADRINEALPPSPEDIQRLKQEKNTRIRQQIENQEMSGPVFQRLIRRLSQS

[13] = alpha-synuclein stem-loop translation blockers – luminescence, H4 neuroglioblastoma cells, dose confirmation, confirmation (AID 2454); type: functional, cell-based;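 note: H4 neuroglioblastoma cells carrying an alpha-synuclein 5'UTR luciferase reporter; potency for inhibition of the luciferase signal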
[14] = target: Heat shock protein HSP 90-alpha (Homo sapiens, UniProt P07900); type: functional, organism-based
[15] = target: ATP-dependent molecular chaperone HSP82 (Candida albicans (strain WO-1) (Yeast), UniProt C4YTQ8); test: steroid-induced GRE reporter decrease in yeast – S. cerevisiae, luminescence, Hsp90 inhibitor project, dose response (AID 2400); type: functional, cell-based;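 note: beta-galactosidase luminescence from glucocorticoid response element reporter as proxy for Hsp90 function; inhibitor potency where signal loss means Hsp90 inhibition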
ATP-dependent molecular chaperone HSP82, sequence (C4YTQ8 whole entry): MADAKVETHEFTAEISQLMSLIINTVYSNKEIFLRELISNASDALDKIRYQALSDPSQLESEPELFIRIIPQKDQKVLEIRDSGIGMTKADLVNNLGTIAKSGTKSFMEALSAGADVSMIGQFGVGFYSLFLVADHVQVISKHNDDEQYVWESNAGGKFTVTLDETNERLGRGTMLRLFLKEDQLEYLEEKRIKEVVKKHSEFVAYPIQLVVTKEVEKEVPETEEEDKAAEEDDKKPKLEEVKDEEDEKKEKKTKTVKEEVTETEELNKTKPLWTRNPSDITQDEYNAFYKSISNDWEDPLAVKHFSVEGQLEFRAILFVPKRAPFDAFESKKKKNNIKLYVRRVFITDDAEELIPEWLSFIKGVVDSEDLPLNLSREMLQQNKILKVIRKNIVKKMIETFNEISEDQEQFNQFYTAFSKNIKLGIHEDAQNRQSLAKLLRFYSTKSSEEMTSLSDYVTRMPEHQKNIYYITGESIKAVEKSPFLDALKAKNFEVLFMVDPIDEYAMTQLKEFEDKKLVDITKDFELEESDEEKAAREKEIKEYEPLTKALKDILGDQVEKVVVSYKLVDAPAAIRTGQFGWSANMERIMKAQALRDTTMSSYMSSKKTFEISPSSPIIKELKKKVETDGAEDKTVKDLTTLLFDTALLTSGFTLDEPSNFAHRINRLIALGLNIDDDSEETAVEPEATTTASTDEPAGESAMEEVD

[16] = target: T2, Alkaline phosphatase, tissue-nonspecific isozyme (Homo sapiens, UniProt P05186)
T2 sequence (P05186 whole entry): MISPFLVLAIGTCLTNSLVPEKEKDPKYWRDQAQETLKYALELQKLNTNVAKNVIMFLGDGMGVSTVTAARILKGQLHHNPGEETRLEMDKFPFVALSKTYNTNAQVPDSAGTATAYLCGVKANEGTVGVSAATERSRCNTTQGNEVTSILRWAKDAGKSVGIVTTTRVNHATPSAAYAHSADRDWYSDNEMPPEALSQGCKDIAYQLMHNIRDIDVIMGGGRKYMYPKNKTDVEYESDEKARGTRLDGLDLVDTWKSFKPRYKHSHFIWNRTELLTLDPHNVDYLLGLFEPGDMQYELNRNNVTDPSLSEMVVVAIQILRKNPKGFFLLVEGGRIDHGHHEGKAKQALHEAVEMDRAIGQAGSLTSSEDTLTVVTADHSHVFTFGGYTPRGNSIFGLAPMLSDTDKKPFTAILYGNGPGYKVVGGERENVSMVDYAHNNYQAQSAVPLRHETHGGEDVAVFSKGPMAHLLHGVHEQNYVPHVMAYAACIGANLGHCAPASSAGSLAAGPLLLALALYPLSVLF

[17] = Counterscreen for IDE inhibitors: Luminescence-based cell-based high throughput dose response assay to identify compounds that are cytotoxic to HEK cells. [Related pubchem assays: 434962 (Primary screen (IDE inhibitors in singlicate)), 449730 (Counterscreen (Cytotoxicity in triplicate)), 435028 (Confirmation (IDE inhibitors in triplicate)) …; type: functional; conditions: HEK293
[18] = target: T3, Insulin-degrading enzyme (Homo sapiens, UniProt P14735); test: Dose Response: Fluorescence polarization-based cell-based high throughput dose response assay for inhibitors of insulin-degrading enzyme (IDE). [Related pubchem assays: 434962 (Primary screen (IDE inhibitors in singlicate)), 449730 (Counterscreen (Cytotoxicity in triplicate)), 435028 (Confirmation (IDE inhibitors in triplicate)), 434984 (Summary …; type: functional
T3 sequence (P14735 whole entry): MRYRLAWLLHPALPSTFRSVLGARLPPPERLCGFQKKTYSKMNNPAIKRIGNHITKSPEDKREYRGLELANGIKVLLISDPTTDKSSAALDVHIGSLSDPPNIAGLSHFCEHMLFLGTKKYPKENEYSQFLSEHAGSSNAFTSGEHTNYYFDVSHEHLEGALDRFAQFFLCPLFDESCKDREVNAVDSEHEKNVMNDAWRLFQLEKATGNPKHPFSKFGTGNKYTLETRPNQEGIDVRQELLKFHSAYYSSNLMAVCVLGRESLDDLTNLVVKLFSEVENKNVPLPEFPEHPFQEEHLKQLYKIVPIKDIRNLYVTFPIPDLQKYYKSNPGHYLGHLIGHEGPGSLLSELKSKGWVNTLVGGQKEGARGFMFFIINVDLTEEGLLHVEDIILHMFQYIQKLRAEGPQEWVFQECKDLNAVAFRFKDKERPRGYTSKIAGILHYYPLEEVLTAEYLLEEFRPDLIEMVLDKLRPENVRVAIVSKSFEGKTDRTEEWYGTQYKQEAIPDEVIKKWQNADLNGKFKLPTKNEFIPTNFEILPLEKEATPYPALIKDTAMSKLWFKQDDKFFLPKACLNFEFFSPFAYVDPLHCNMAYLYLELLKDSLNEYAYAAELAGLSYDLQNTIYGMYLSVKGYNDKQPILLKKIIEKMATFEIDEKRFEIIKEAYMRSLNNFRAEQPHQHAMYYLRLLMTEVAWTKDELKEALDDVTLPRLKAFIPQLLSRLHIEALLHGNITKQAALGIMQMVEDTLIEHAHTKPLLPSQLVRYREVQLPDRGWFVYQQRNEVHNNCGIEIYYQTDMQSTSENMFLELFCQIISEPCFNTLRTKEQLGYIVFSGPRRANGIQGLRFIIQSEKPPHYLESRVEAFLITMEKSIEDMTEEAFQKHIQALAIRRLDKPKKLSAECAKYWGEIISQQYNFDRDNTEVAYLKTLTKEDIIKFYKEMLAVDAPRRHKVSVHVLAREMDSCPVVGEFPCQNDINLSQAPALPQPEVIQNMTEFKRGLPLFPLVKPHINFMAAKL

[19] = mitochondrial function rescue without frataxin homolog – Friedreich's ataxia, plus single-dose screen, dose response (AID 1465); type: functional;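 note: yeast depleted of Yfh1p frataxin homolog grown on glycerol needing respiration; WST-1 tetrazolium dye reduction as measure of cellular dehydrogenase metabolic activity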
[20] = target: Mothers against decapentaplegic homolog 3 (Homo sapiens, UniProt P84022); test: blockers of Smad3 complex formation in lysate – cell lysate, secondary confirmation, chemiluminescent ELISA, HEK293 lysate, dose response (AID 1058); type: functional
Mothers against decapentaplegic homolog 3, sequence (P84022 whole entry): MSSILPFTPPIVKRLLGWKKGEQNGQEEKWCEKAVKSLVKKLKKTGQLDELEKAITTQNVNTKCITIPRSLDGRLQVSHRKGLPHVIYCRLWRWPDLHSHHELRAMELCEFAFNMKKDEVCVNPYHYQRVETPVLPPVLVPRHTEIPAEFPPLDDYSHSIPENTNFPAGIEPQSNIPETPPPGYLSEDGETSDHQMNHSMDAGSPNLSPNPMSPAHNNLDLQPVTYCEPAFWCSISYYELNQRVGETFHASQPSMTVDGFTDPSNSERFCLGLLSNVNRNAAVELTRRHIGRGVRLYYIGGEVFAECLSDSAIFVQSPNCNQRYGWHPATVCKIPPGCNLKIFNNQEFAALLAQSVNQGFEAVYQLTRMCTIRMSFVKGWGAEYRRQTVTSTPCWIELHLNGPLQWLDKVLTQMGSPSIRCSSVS

[21] = target: Serine/threonine-protein phosphatase PP1-alpha catalytic subunit (Homo sapiens, UniProt P62136); test: inhibition of protein phosphatase 1 activity – biochemical, fluorescence, dose response (AID 2403);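 note: phosphatase turnover of OMFP into fluorescent 3-O-methylfluorescein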
Serine/threonine-protein phosphatase PP1-alpha catalytic subunit, sequence (P62136 whole entry): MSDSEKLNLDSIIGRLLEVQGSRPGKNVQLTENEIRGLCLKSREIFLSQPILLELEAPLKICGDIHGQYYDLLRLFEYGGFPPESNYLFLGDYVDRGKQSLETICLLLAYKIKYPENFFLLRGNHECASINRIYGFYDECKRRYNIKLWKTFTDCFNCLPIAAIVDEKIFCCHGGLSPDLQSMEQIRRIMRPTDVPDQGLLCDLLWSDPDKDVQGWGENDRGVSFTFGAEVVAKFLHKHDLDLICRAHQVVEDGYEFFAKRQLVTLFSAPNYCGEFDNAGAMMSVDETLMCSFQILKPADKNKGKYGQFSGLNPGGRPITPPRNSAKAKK

[22] = target: T4, Serine/threonine-protein phosphatase (Homo sapiens, UniProt Q9BPW0); test: Counterscreen for inhibitors of PP1: fluorescence-based biochemical high throughput dose response assay to identify inhibitors of Protein Phosphatase 5 (PP5). [Related pubchem assays: 2034 (Summary (PP5 inhibitors)), 1987 (PP5 inhibitors in singlate), 2235 (PP1 inhibitors in singlate)]
T4 sequence (Q9BPW0 whole entry): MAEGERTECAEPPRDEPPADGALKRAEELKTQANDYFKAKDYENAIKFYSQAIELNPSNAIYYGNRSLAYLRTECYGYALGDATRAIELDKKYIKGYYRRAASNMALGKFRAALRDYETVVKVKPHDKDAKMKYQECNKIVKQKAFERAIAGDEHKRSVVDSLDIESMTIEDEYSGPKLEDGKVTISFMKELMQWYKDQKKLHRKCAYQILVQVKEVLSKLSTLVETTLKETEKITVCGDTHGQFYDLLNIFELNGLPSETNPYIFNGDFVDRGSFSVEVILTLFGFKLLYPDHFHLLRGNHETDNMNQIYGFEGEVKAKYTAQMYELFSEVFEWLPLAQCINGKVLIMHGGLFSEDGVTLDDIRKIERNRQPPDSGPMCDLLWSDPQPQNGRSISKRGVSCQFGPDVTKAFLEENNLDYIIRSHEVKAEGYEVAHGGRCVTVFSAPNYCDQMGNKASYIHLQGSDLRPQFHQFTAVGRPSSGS

[23] = target: T5, Heat shock factor protein 1 (Mus musculus, UniProt P38532); test: enhancement of HSF1-driven luciferase signal – cell-based, NIH3T3, luminescence, dose retest, confirmation (AID 435004); type: functional;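 note: stress induced by proteasome inhibitor MG132 added 30 min after compound; luciferase reporter driven by HSF1 response element in NIH3T3 cells; actives raise luminescence as potentiators of the MG132 stress response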
T5 sequence (P38532 whole entry): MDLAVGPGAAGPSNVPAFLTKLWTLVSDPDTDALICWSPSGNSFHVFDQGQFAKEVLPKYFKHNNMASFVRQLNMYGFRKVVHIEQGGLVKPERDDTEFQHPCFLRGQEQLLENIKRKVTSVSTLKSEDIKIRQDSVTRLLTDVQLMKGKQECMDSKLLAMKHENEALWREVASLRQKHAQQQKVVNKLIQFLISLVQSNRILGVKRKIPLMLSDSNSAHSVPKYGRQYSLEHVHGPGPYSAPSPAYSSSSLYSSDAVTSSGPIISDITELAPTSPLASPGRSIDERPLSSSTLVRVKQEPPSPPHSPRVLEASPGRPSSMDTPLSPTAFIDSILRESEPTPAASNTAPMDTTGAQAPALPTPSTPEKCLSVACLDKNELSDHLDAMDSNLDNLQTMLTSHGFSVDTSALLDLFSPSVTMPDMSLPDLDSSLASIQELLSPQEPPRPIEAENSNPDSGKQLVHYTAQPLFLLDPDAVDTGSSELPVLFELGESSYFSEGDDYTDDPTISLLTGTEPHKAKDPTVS

[24] = system: Streptococcus sp. 'group A'; test: Streptococcus pyogenes SK(-)GAS viability under kanamycin – luminescence, BacTiterGlo, confirmation, counter-screen for streptokinase expression inhibitor project, dose response (AID 1900); type: functional, organism-based
[25] = target: Potassium voltage-gated channel subfamily KQT member 2 (Rattus norvegicus, UniProt O88943, W236L); test: potentiation of rat KCNQ2 current – cell-based, automated electrophysiology, mechanism study for KCNQ2 potentiator project, dose response (AID 2603); type: functional
Potassium voltage-gated channel subfamily KQT member 2, sequence (O88943 whole entry W236L): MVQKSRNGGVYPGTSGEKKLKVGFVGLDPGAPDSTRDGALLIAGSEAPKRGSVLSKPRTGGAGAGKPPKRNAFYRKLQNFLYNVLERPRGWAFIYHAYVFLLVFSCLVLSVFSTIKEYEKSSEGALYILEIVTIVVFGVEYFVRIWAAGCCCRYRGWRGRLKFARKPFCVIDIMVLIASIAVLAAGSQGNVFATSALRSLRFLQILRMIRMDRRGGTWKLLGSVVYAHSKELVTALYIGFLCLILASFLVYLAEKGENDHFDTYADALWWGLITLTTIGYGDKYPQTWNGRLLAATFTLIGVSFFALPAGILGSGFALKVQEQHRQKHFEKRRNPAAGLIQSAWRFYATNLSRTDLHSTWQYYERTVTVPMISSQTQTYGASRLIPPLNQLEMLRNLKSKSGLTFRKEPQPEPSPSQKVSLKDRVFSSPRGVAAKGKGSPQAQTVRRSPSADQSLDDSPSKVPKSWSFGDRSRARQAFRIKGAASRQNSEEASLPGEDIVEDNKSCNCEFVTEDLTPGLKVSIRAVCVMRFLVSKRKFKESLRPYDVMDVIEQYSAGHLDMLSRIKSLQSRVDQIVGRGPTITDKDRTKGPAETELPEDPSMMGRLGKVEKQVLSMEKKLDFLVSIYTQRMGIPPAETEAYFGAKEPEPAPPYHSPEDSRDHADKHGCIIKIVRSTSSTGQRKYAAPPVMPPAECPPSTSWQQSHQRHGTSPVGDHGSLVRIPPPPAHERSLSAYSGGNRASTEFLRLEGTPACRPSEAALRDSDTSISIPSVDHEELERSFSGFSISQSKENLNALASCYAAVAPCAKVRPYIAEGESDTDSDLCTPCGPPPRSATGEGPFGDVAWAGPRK

[26] = system: Streptococcus; test: GAS UMAA2166 growth inhibition – luminescence, BacTiterGlo, counter-screen for streptokinase expression inhibitor project, dose response (AID 1915); type: functional, organism-based;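 note: potency for reduction of bacterial viability or growth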

5-hydroxytryptamine receptor 1E, sequence (P28566 whole entry): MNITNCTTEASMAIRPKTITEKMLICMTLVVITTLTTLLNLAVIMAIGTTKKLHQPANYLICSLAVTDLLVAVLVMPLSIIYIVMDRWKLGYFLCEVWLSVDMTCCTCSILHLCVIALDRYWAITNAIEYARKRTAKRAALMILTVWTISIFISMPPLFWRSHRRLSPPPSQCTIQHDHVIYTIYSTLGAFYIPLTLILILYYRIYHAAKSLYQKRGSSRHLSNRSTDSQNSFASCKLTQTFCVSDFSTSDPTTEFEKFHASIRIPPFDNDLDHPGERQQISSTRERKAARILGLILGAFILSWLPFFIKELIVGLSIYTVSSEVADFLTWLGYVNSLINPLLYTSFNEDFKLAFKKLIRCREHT

With `O=C(Nc1ccc(Br)cc1)C(c1ccccc1)c1ccccc1` the IC50 [1] was > 50 µM (not active) and the IC50 [2] was 1.33 µM (active).

For `CCN(CC)c1ccc(NC(=O)CSc2nc(C)cc(O)n2)cc1`, the IC50 [3] was 3.06 µM (active), the IC50 [4] was > 73.5 µM (not active) and the IC50 [5] was > 59.6 µM (not active).

With `Cc1cc(C(=O)Cn2cc(C(F)(F)F)ccc2=O)c(C)n1Cc1ccccc1` the EC50 [6] was 0.723 µM (active).

For `Oc1c(C(Nc2nccs2)c2ccc(C(F)(F)F)cc2)ccc2cccnc12` (stereo not drawn), the EC50 [7] was 11.2 µM (active), the EC50 [8] was 8.36 µM (active) and the EC50 [9] was 1.04 µM (active). The EC50 [10] was < 0.1 µM (active), the EC50 [11] was 1.01 µM (active) and the EC50 [12] was > 180 µM (inactive). For the same molecule, the EC50 [13] was > 12 µM (not active), the AC50 [14] was 3.69 µM (active) and the EC50 [15] was > 160 µM (inactive).

For `Cc1ccc(C(O)(C(=O)NNC(=O)CN2CCN(C)CC2)c2ccc(C)cc2)cc1`, the EC50 [16] was 64.1 µM (not active).

For `O=C1NC(=O)N(c2ccc3c(c2)OCO3)C(=O)/C1=C/c1ccc(N2CCCC2)o1`, the IC50 [17] was > 55.7 µM (not active), the IC50 [18] was 20.7 µM (not active) and the EC50 [19] was > 100 µM (active).

For `COc1cc(C(c2cc3c(cc2O)OCO3)N2CCCCC2)cc(OC)c1OC` (stereo not drawn), the IC50 [20] was 12.5 µM (not active).

For `O=C(O)c1cc(-c2ccc(Cl)c(Cl)c2)n(-c2ccccc2)n1`, the IC50 [21] was 5.82 µM (active), the IC50 [22] was > 67 µM (not active) and the EC50 [23] was > 260 µM (inactive).

With `O=C(Cc1ccccc1)N/N=C/c1cc(Br)cc(Cl)c1O` the EC50 [7] was > 150 µM (inactive), the EC50 [24] was 1.05 µM (active) and the EC50 [11] was 4.68 µM (active). The EC50 [25] was 7.13 µM (active) and the EC50 [26] was 1.73 µM (active).
